Source: patent US9918990B2, “Substituted pyrrolo[2,3-c]pyridines and pyrazolo[3,4-c]pyridines as BET protein inhibitors” (Incyte Corporation, priority 2013, dated 2018)

Assays:
KMS.12.BM cells = experiment: KMS.12.BM cell viability assay (Cell Titer-GLO, ATP quantitation); format: cell-based; conditions: Homo sapiens, 72 h, 3 days, concentration required for 50% cell death, read-out: KMS cellular IC50
Procedure, shortened: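 Human myeloma KMS.12.BM cells, 5000 cells/well in RPMI with 10% FBS, were exposed to a compound concentration range for 3 days. Viability was read by Cell Titer-GLO ATP luminescence relative to untreated cells; IC50 is the concentration giving 50% cell death.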

C-myc = experiment: KMS.12.BM C-myc ELISA assay; format: cell-based; conditions: Homo sapiens; KMS.12.BM cells, 2 hours, concentration required for 50% C-myc inhibition
Procedure, shortened: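 Human myeloma KMS.12.BM cells in RPMI/10% FBS were exposed to a compound concentration range for 2 h, then lysed with protease inhibitors. C-myc in clarified lysates was measured by ELISA. IC50 is the concentration giving 50% C-myc inhibition relative to untreated cells.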

BRD4-BD2 = BRD4-BD2 (Homo sapiens (Human), UniProt O60885); experiment: BRD4 AlphaScreen assay, BRD4-BD2; format: binding; conditions: H4Ac4 peptide, 75 min, room temperature, read-out: BRD4 BD-2 enzyme IC50
Procedure, shortened: (§1)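 AlphaScreen read after 75 min dark incubation at room temperature, inhibitors serially diluted in DMSO and added before other components. IC50 from fit of percent control activity versus log inhibitor concentration.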

BRD4-BD1 = BRD4-BD1 (Homo sapiens (Human), UniProt O60885); experiment: BRD4 AlphaScreen assay, BRD4-BD1; format: binding; conditions: H4Ac4 peptide, 75 min, room temperature, read-out: BRD4 BD-1 enzyme IC50
Procedure, shortened: as §1

IC50 (C-myc) [nM] | IC50 (BRD4-BD2) [nM] | IC50 (BRD4-BD1) [nM] | SMILES | IC50 (KMS.12.BM cells) [nM]
≤ 1000 | < 100 | < 100 | CC(=O)NCc1nc2c(Oc3ccccc3)c(-c3cn(C)c(=O)c4[nH]ccc34)ccc2o1 [Example 104, N-{[5-(6-Methyl-7-oxo-6,7-dihydro-1H-pyrrolo[2,3-c]pyridin-4-yl)-4-phenoxy-1,3-benzoxazol-2-yl]methyl}acetamide] | ≤ 1000
≤ 1000 | < 100 | < 100 | Cn1cc(-c2ccc3oc(CNS(C)(=O)=O)nc3c2Oc2ccccc2)c2cc[nH]c2c1=O [Example 105, N-{[5-(6-Methyl-7-oxo-6,7-dihydro-1H-pyrrolo[2,3-c]pyridin-4-yl)-4-phenoxy-1,3-benzoxazol-2-yl]methyl}methanesulfonamide] | ≤ 1000
1000 to 10000 | < 100 | < 100 | Cn1cc(-c2ccc3oc(CNC(=O)c4ccccc4)nc3c2Oc2ccccc2)c2cc[nH]c2c1=O [Example 106, N-{[5-(6-methyl-7-oxo-6,7-dihydro-1H-pyrrolo[2,3-c]pyridin-4-yl)-4-phenoxy-1,3-benzoxazol-2-yl]methyl}benzamide] | ≤ 1000
≤ 1000 | < 100 | < 100 | Cn1cc(-c2ccc3oc(CNC(=O)Cc4ccccc4)nc3c2Oc2ccccc2)c2cc[nH]c2c1=O [Example 107, N-{[5-(6-Methyl-7-oxo-6,7-dihydro-1H-pyrrolo[2,3-c]pyridin-4-yl)-4-phenoxy-1,3-benzoxazol-2-yl]methyl}-2-phenylacetamide] | ≤ 1000
≤ 1000 | < 100 | < 100 | Cn1cc(-c2ccc3oc(CNC(=O)C4CC4)nc3c2Oc2ccccc2)c2cc[nH]c2c1=O [Example 108, N-{[5-(6-Methyl-7-oxo-6,7-dihydro-1H-pyrrolo[2,3-c]pyridin-4-yl)-4-phenoxy-1,3-benzoxazol-2-yl]methyl}cyclopropanecarboxamide] | ≤ 1000
1000 to 10000 | < 100 | < 100 | Cn1cc(-c2ccc3oc(CNC(=O)CC4CCCC4)nc3c2Oc2ccccc2)c2cc[nH]c2c1=O [Example 109, 2-Cyclopentyl-N-{[5-(6-methyl-7-oxo-6,7-dihydro-1H-pyrrolo[2,3-c]pyridin-4-yl)-4-phenoxy-1,3-benzoxazol-2-yl]methyl}acetamide] | ≤ 1000
≤ 1000 | < 100 | < 100 | Cn1cc(-c2ccc3c(ncn3CCC#N)c2Oc2ccccc2)c2cc[nH]c2c1=O [Example 113, 3-[5-(6-Methyl-7-oxo-6,7-dihydro-1H-pyrrolo[2,3-c]pyridin-4-yl)-4-phenoxy-1H-benzimidazol-1-yl]propanenitrile] | ≤ 1000
